Results reported in patent publication US9497960B2, “Biocide compositions comprising alkoxylation products of isoamyl alcohol derivatives” (COGNIS IP MANAGEMENT GMBH, priority 2010, dated 2016).

Tests used:
[1] = Foam potential / foam height of aqueous adjuvant solutions; assay type: physicochemical; conditions: 0.1% aqueous solution/dispersion; Cipac MT 47, Cipac water D
Method: (§1) Definition of “quasistatic”: Static or equilibrium surface tension at an air-liquid interface can be determined by the Du Noüy ring method, the Wilhelmy plate etc. […] To avoid such problems, a dynamic method is used but the frequency is reduced to 0.1 Hz or less, thus close enough to equilibrium conditions. Dynamic surface tension is determined at a frequency of 10 Hz. It was determined at 20° C. with the Krüss Bubble Pressure Tensiometer BP2, available from Krüss GmbH, Borsteler Chaussee 85-99, 22453 Hamburg, Germany. Foam potential was tested with SITA foam tester R-2000, available from SITA Messtechnik GmbH, Gostritzer Str. 61-63, 01217 Dresden, Germany. The results are compiled in Tables 1 and 2

[2] = system: barley powdery mildew (BPM); assay: Protective trial with Amistar (Azoxystrobin SC 250) against barley powdery mildew; assay type: in vivo, Blumeria graminis f. sp. hordei on barley; conditions: 5 g/ha azoxystrobin, adjuvant 50 ml/ha, leaves cut 5 h after application, incubation 10 d
Method: Opus SC125 (BASF) was tested to control barley powdery mildew (BPM) in a curative greenhouse trial, Azoxystrobin SC 250 in a protective trial. In each case, barley was cultivated in a substrate “Frustorder Erde” for three weeks. Each treatment was replicated 14 times. The adjuvant dose rate in each treatment was 50 ml/ha. 5 h after application with the equivalent of 5 g/ha azoxystrobin, leaf segments were cut off at a length of 7 cm from the stem. The leaves of the F and F-1 leaf were placed on agar. After the inoculation, the incubation time was 10 d. The assessment of the infection rate was conducted by a trained biologist.

[3] = system: barley powdery mildew (Blumeria graminis f. sp. hordei); assay: Curative greenhouse trial with Opus against barley powdery mildew; assay type: in vivo, Blumeria graminis f. sp. hordei on barley; conditions: for Infection rate of barley powdery mildew after treatment with fungicides, Opus: curative, Opus 10 g/ha, adjuvant 50 ml/ha, inoculation 2 days prior to application, assessment 14 DAT, barley leaf segments; for Sum of infection rates: sum of Opus (curative) and Amistar (protective) trials
Method: Opus SC125 (BASF) was tested to control barley powdery mildew (BPM) in a curative greenhouse trial, Azoxystrobin SC 250 in a protective trial. In each case, barley was cultivated in a substrate “Frustorder Erde” for three weeks. Each treatment was replicated 14 times. The adjuvant dose rate in each treatment was 50 ml/ha. Inoculation of the leaves with powdery mildew (Blumeria graminis f. sp. hordei) was done 2 days prior to application to test Opus' curative action. From the stem, leaf segments were cut off with a length of 10 cm using the flag leaf (F) and 2nd leaf (F-1). Altogether, the leaves of each were placed on benzimidazol agar i.e. 0.5% Agar with 40 ppm benzimidazol. The concentration of Opus for the leaf application was 10 g/ha. Assessment 14 days after treatment (14 DAT) of the efficacy against powdery mildew was done by counting the mildew pustules per leaf on a length of 7 cm. The assessment of the infection rate was conducted by a trained biologist.

[4] = Dynamic and quasistatic surface tension, Krüss Bubble Pressure Tensiometer BP2; assay type: physicochemical; conditions: 0.1% in demineralised water, Kruess BP 2, 20° C.; for Surface tension at 10 Hz: dynamic; for Surface tension at 0.1 Hz: quasistatic
Method: as §1

Row | Compound | Foam hight after 1 m [1] [mL] | Foam hight after 5 m [1] [mL] | Infection rate of barley powdery mildew after treatment with fungicides, Amistar [2] [%] | Infection rate of barley powdery mildew after treatment with fungicides, Opus [3] [%] | Sum of infection rates [3] [%] | Surface tension at 10 Hz [4] [mN/m] | Surface tension at 0.1 Hz [4] [mN/m]
1 | Isoamylguerbet + 3EO + 3PO [Example 2] | 0 | 0 | 0 | 8 | 8 | 45 | 32
2 | Isoamylguerbet + 3PO + 3EO [Example 1] | 1 | 0 | 0 | 3 | 3 | 45 | 28
3 | CC(C)CCC(COCCOCCOCCOCCOCCOCCOCCOCCOCCOCCO)C(C)C (centres unmarked) [Example 3, Isoamylguerbet + 10EO] | 3 | 2 | 5 | 7 | 12 | 46 | 36
4 | CC(C)CCC(COCCOCCOCCO)C(C)C (centres unmarked) [Example 5, Isoamylguerbet + 3EO] | 0 | 0 | 4 | 20 | 24 | 42 | 30
5 | CC(C)CCC(COCCOCCOCCOCCOCCO)C(C)C (centres unmarked) [Example 4, Isoamylguerbet + 5EO] | 0 | 0 | 3 | 12 | 15 | 39 | 30
